The experiment relates to oral inflammatory lesions in hamster cheek pouches. Description: Treatment of acetic acid-induced oral inflammatory lesions in hamster cheek pouches. It is filed as in vivo, Golden Syrian hamsters. The conditions noted are these: mean +/- SEM. As to the method: FIG. 10 is a schematic of the procedure used to test delivery of budesonide to treat or prevent ulcers induced by acetic acid in hamster cheek pouches. 50% acetic acid was administered for 60 seconds. Male Golden Syrian hamsters weighing 100-120 g (Charles River Laboratories, Wilmington, Mass.) were used as received and randomly assigned to experimental groups by the researchers performing the work. To limit pain and distress, all animals received buprenorphine sustained release (SR) (subcutaneous administration, 1 mg/kg body weight, compounded by ZooPharm) just prior to the application of acetic acid for the induction of the oral lesion on day 0. All manipulations occurred with the animal under general anesthesia by inhaled isoflurane. Experimental treatment groups included topical application of budesonide solution with (Budesonide+US) and without (Budesonide) ultrasound. A positive disease control receiving no treatment was also included (Disease). Treatment was administered on day 0 immediately prior to lesion induction using acetic acid. While under general anesthesia, the left cheek pouch was everted, the device was placed on the buccal surface, and the fluid chamber filled with solubilized budesonide solution (0.1%, ˜1 mL). For the Budesonide+US treatment group, ultrasound was simultaneously applied for 3 seconds at an intensity of 5 W/cm2 and a 100% duty cycle. In experimental groups receiving budesonide only (Budesonide), drug was applied as described above without turning the ultrasound on. Immediately following budesonide treatment, oral lesions were induced by topical application of acetic acid (50% solution) as described in previous studies. Briefly, acetic acid was applied to the buccal surface using a liquid holder with a circular area of 5 mm2 for 60 seconds. After acetic acid application, the hamsters were placed back into their cages to recover. On every subsequent day, the cheek pouches were everted to reveal the lesion and an image captured to quantify lesion size. Treatments were then applied as described above. Lesion size was measured using ImageJ (National Institutes of Health, Bethesda, Md.). All data analysis was performed using GraphPad Prism software (GraphPad Software, Inc., La Jolla, Calif., USA). Two-group comparisons were made using Student's unpaired t-test using Welch's correction. Multiple comparisons were made using one-way ANOVA followed by Tukey's post-test. For all comparisons, p<0.05 was considered statistically significant. Data are reported as mean±standard error of the mean (SEM) except for temperature measurements that are reported as mean±standard deviation (SD).

Turning to `CCCC1O[C@@H]2C[C@H]3[C@@H]4CCC5=CC(=O)C=C[C@]5(C)[C@H]4[C@@H](O)C[C@]3(C)[C@]2(C(=O)CO)O1` (stereo partly shown) [Budesonide], the oral lesion size by setting is: (24 hours post-acetic acid induced injury, budesonide solution 0.1% with 40 kHz ultrasound 3 seconds, 5 W/cm2) 15.7+/−1.3 mm2; (24 hours post-acetic acid induced injury, topical budesonide solution 0.1% without ultrasound) 20.3+/−1.1 mm2; (48 hours after acetic acid-induced injury, budesonide with ultrasound) 18.71+/−2.3 mm2; (48 hours after acetic acid-induced injury, topical budesonide without ultrasound) 25.5+/−1.6 mm2.

Values taken from patent publication US20210252265A1, “DEVICES AND METHODS FOR ULTRASONIC DELIVERY OF AN AGENT WITHIN AN ORAL CAVITY” (Suono Bio, Inc., priority 2018, published 2021).
